Patent publication US5994342A, “3-(substituted methyl)-4-oxa-1-azabicyclo[3.2.0]heptan-7-one derivatives useful as antitumor agents” (priority 1994, dated 1999)
≈ marks a conversion by molar mass, not a printed value. Where a name gives a salt, the structure may show the parent alone.

These compounds were tested on KB cells (assay: In vitro KB cell cytotoxicity assay (crystal violet)). Conditions: Homo sapiens, 72 h, 3 days culture, read-out: KB Cell Cytotoxicity TD50.
Assay type: cell-based
Experimental: In Vitro KB Cell Cytotoxicity Assay In vitro KB cell cytoxocity assay was done by modification of the crystal violet assay ([…] et al., Anal Biochem., 159, 109-113 (1986). KB cells were cultivated in Eagles minimum essential medium supplemented with 10% calf serum and incubated at 37° C. in a humidified 5% CO2 atmosphere to prepare a cell stock. Cells were counted using a neubauer hemocytometer and seeded in 96 well plates at 100 μl of 3×10^4 cells/ml and cultured for one day. […] Control wells were identical except that test compound was absent. These were cultured for three days. Then the cells were fixed with addition of 20 μl of 25% glutaraldehyde for 15 minutes, washed with water and dried. Then stained with 100 μl of 0.05% crystal violet for 15 minutes, washed with water and dried. The wells are eluted with […] of 0.05M NaH2 PO4 /ethanol (1:1 v/v) and read at OD540 on a multiscan spectrophotometer. Inhibition value of cell growth was calculated based on optical density using the following equation; [formula] TD50 values were calculated from linear regression ines of the log-logit plot.

Point of comparison: `CC(=O)NCCCCCC(=O)NC[C@@H]1CN2C(=O)C[C@H]2O1` (racemic) [Example 17, (3RS,5RS)-3-[N-(6-Acetylaminohexanoyl)aminomethyl]-4-oxa-1-azabicyclo[3.2.0]heptan-7-one], IC50 0.439 µg/mL (≈ 1.48 µM). Against it:
- CC(=O)N[C@@H](C(=O)OC[C@H]1CN2C(=O)C[C@@H]2O1)C(C)C (mixture of isomers) [Example 61, (3RS,5SR)-3-(D-2-Acetylamino-3-methylbutyryl)oxymethyl-4-oxa-1-azabicyclo[3.2.0]heptan-7-one] — within 1.5-fold, 0.385 µg/mL
- CC(C)C(=O)NC[C@@H]1CN2C(=O)C[C@H]2O1 (racemic) [Example 5, (3RS,5RS)-3-[N-(2-Methylpropanoyl)aminomethyl]-4-oxa-1-azabicyclo[3.2.0]heptan-7-one] — 2.4-fold lower, 0.181 µg/mL (≈ 0.853 µM)
- [N-]=[N+]=NCC(=O)NC[C@@H]1CN2C(=O)C[C@H]2O1 (racemic) [Example 9, (3RS,5RS)-3-[N-(Azidoacetyl)aminomethyl]-4-oxa-1-azabicyclo[3.2.0]heptan-7-one] — within 1.5-fold, 0.296 µg/mL (≈ 1.31 µM)
- O=C(Cn1ccnn1)NC[C@@H]1CN2C(=O)C[C@H]2O1 (racemic) [Example 10, (3RS,5RS)-3-[N-(1,2,3-Triazole-1-yl)acetylaminomethyl]-4-oxa-1-azabicyclo[3.2.0]heptan-7-one] — 1.6-fold lower, 0.282 µg/mL (≈ 1.12 µM)
- O=COCC(=O)NC[C@@H]1CN2C(=O)C[C@H]2O1 (racemic) [Example 11, (3RS,5RS)-3-[N-(Formyloxyacetyl)aminomethyl]-4-oxa-1-azabicyclo[3.2.0]heptan-7-one] — 3-fold lower, 0.147 µg/mL (≈ 0.644 µM)
- O=C(CO)NC[C@@H]1CN2C(=O)C[C@H]2O1 (racemic) [Example 12, (3RS,5RS)-3-[N-(Hydroxyacetyl)aminomethyl]-4-oxa-1-azabicyclo[3.2.0]heptan-7-one] — 3.5-fold lower, 0.125 µg/mL (≈ 0.624 µM)
- O=C(CCCCCBr)NC[C@@H]1CN2C(=O)C[C@H]2O1 (racemic) [Example 13, (3RS,5RS)-3-[N-(6-Bromohexanoyl)aminomethyl]-4-oxa-1-azabicyclo[3.2.0]heptan-7-one] — within 1.5-fold, 0.491 µg/mL (≈ 1.54 µM)
- O=COCCCCCC(=O)NC[C@@H]1CN2C(=O)C[C@H]2O1 (racemic) [Example 14, (3RS,5RS)-3-[N-(6-Formyloxyhexanoyl)aminomethyl]-4-oxa-1-azabicyclo[3.2.0]heptan-7-one] — 1.8-fold lower, 0.243 µg/mL (≈ 0.855 µM)
- [N-]=[N+]=NCCCCCC(=O)NC[C@@H]1CN2C(=O)C[C@H]2O1 (racemic) [Example 15, (3RS,5RS)-3-[N-(6-Azidohexanoyl)aminomethyl]-4-oxa-1-azabicyclo[3.2.0]heptan-7-one] — 1.7-fold lower, 0.254 µg/mL (≈ 0.903 µM)
- O=C(CCCCCn1ccnn1)NC[C@@H]1CN2C(=O)C[C@H]2O1 (racemic) [Example 16, (3RS,5RS)-3-[N-[(1,2,3-Triazol-1-yl)hexanoyl]aminomethyl]-4-oxa-1-azabicyclo[3.2.0]heptan-7-one] — within 1.5-fold, 0.318 µg/mL (≈ 1.03 µM)
- C=CCCC(=O)NC[C@@H]1CN2C(=O)C[C@H]2O1 (racemic) [Example 19, (3RS,5RS)-3-[N-(4-Pentenoyl)aminomethyl]-4-oxa-1-azabicyclo[3.2.0]heptan-7-one] — 1.7-fold lower, 0.266 µg/mL (≈ 1.19 µM)
- C#CC(=O)NC[C@@H]1CN2C(=O)C[C@H]2O1 (racemic) [Example 20, (3RS,5RS)-3-[N-Propynoylaminomethyl]-4-oxa-1-azabicyclo[3.2.0]heptan-7-one] — within 1.5-fold, 0.333 µg/mL (≈ 1.71 µM)
- O=C(NC[C@@H]1CN2C(=O)C[C@H]2O1)OCc1ccccc1 (racemic) [Example 21, (3RS,5RS)-3-[N-(Benzyloxycarbonyl)aminomethyl]-4-oxa-1-azabicyclo[3.2.0]heptan-7-one] — within 1.5-fold, 0.34 µg/mL (≈ 1.23 µM)
- O=C(NC[C@@H]1CN2C(=O)C[C@H]2O1)c1ccc(O)cc1 (racemic) [Example 24, (3RS,5RS)-3-[N-(4-Hydroxybenzoyl)aminomethyl]-4-oxa-1-azabicyclo[3.2.0]heptan-7-one] — 1.6-fold lower, 0.276 µg/mL (≈ 1.05 µM)
- COc1ccc(C(=O)NC[C@@H]2CN3C(=O)C[C@H]3O2)cc1 (racemic) [Example 25, (3RS,5RS)-3-[N-(4-Methoxybenzoyl)aminomethyl]-4-oxa-1-azabicyclo[3.2.0]heptan-7-one] — 1.7-fold lower, 0.255 µg/mL (≈ 0.923 µM)
- COc1ccc(C(=O)NC[C@@H]2CN3C(=O)C[C@H]3O2)cc1OC (racemic) [Example 26, (3RS,5RS)-3-[N-(3,4-Dimethoxybenzoyl)aminomethyl]-4-oxa-1-azabicyclo[3.2.0]heptan-7-one] — 1.8-fold lower, 0.249 µg/mL (≈ 0.813 µM)
- O=C(NC[C@@H]1CN2C(=O)C[C@H]2O1)c1ccc(F)cc1 (racemic) [Example 27, (3RS,5RS)-3-[N-(4-Fluorobenzoyl)aminomethyl]-4-oxa-1-azabicyclo[3.2.0]heptan-7-one] — 1.8-fold lower, 0.24 µg/mL (≈ 0.908 µM)
- O=C(NC[C@@H]1CN2C(=O)C[C@H]2O1)c1cc(F)ccc1F (racemic) [Example 28, (3RS,5RS)-3-[N-(2,5-Difluorobenzoyl)aminomethyl]-4-oxa-1-azabicyclo[3.2.0]heptan-7-one] — within 1.5-fold, 0.379 µg/mL (≈ 1.34 µM)
- O=C(NC[C@@H]1CN2C(=O)C[C@H]2O1)c1cc(F)c(F)cc1F (racemic) [Example 29, (3RS,5RS)-3-[N-(2,4,5-Trifluorobenzoyl)aminomethyl]-4-oxa-1-azabicyclo[3.2.0]heptan-7-one] — within 1.5-fold, 0.535 µg/mL (≈ 1.78 µM)
- N#Cc1ccc(C(=O)NC[C@@H]2CN3C(=O)C[C@H]3O2)cc1 (racemic) [Example 30, (3RS,5RS)-3-[N-(4-Cyanobenzoyl)aminomethyl]-4-oxa-1-azabicyclo[3.2.0]heptan-7-one] — within 1.5-fold, 0.378 µg/mL (≈ 1.39 µM)
- O=C(NC[C@@H]1CN2C(=O)C[C@H]2O1)c1cccnc1 (racemic) [Example 32, (3RS,5RS)-3-[N-[(Pyridin-3-yl)carbonyl]aminomethyl]-4-oxa-1-azabicyclo[3.2.0]heptan-7-one] — 1.8-fold higher, 0.78 µg/mL (≈ 3.15 µM)
- Cc1ccc(S(=O)(=O)NC[C@H]2CN3C(=O)C[C@H]3O2)cc1 (racemic) [Example 36, (3RS,5RS)-3-[N-(4-Toluenesulfonyl)aminomethyl]-4-oxa-1-azabicyclo[3.2.0]heptan-7-one] — within 1.5-fold, 0.338 µg/mL (≈ 1.14 µM)
- O=C1C[C@H]2O[C@@H](CNS(=O)(=O)c3ccc(Cl)cc3)CN12 (racemic) [Example 37, (3RS,5RS)-3-[N-(4-Chlorobenzenesulfonyl)aminomethyl]-4-oxa-1-azabicyclo[3.2.0]heptan-7-one] — within 1.5-fold, 0.484 µg/mL (≈ 1.53 µM)
- O=C(O)CCC(=O)NC[C@H]1CN2C(=O)C[C@@H]2O1 (relative stereo) [Example 18, Sodium{N-[(3RS,5RS)-7-oxo-1-aza-4-oxabicyclo[3.2.0]hept-3-yl]methylamino}succinate] — 6.5-fold higher, 2.85 µg/mL
- CC(=O)NC[C@@H]1CN2C(=O)C[C@H]2O1 [Example 3, (3R,5R)-3-(N-Acetylaminomethyl)-4-oxa-1-azabicyclo[3.2.0]heptan-7-one] — 7.2-fold higher, 3.15 µg/mL (≈ 17.1 µM)
- C[C@H](N)C(=O)NCC1CN2C(=O)CC2O1 (stereo partly drawn) [Example 50B, (3RS,5RS)-3-N-(L-2-Aminopropanoyl)aminomethyl-4-oxa-1-azabicyclo[3.2.0]heptan-7-one hydrochloride] — within 1.5-fold, 0.657 µg/mL
- N[C@@H](CC(=O)O)C(=O)N[C@@H](Cc1ccccc1)C(=O)NCC1CN2C(=O)CC2O1 (stereo partly drawn) [Example 64B, (3RS,5RS)-3-N-[L-2-N-(L-2-Amino-3-carboxypropanoyl)amino-3-phenylpropanoyl]aminomethyl-4-oxa-1-azabicyclo[3.2.0]heptan-7-one] — 6-fold higher, 2.65 µg/mL (≈ 6.55 µM)
- O=C(N[C@@H](CO)C(=O)OCC1CN2C(=O)CC2O1)OCc1ccccc1 (stereo partly drawn) [Example 70, (3RS,5SR)-3-(L-2-N-Benzyloxycarbonylamino-3-hydroxypropanyl)oxymethyl-4-oxa-1-azabicyclo[3.2.0]heptan-7-one] — within 1.5-fold, 0.352 µg/mL (≈ 0.966 µM)
- C[C@@H](NC(=O)OCc1ccccc1)C(=O)N[C@@H](CO)C(=O)OCC1CN2C(=O)CC2O1 (stereo partly drawn) [Example 71, (3RS,5SR)-3-[L-2-N-(D-2-N-Benzyloxycarbonylaminopropanoyl)amino-3-hydroxypropanoyl]oxymethyl-4-oxa-1-azabicyclo[3.2.0]heptan-7-one] — within 1.5-fold, 0.549 µg/mL (≈ 1.26 µM)
- O=C(N[C@@H](COCc1ccccc1)C(=O)OCC1CN2C(=O)CC2O1)OCc1ccccc1 (stereo partly drawn) [Example 72, (3RS,5SR)-3-L-(2-N-Benzyloxycarbonylamino-3-benzyloxypropanoyl)oxymethyl-4-oxa-1-azabicyclo[3.2.0]heptan-7-one] — 3.8-fold higher, 1.67 µg/mL (≈ 3.67 µM)
- C[C@@H](NC(=O)OCc1ccccc1)C(=O)N[C@@H](COCc1ccccc1)C(=O)OCC1CN2C(=O)CC2O1 (stereo partly drawn) [Example 73, (3RS,5R)-3-[L-2-N-(D-2-N-Benzyloxycarbonylaminopropanoyl)amino-3-benzyloxypropanoyl]oxymethyl-4-oxa-1-azabicyclo[3.2.0]heptan-7-one] — 5.1-fold higher, 2.22 µg/mL (≈ 4.22 µM)
- N[C@@H](CO)C(=O)NCC1CN2C(=O)CC2O1 (stereo partly drawn) [Example 76B, (3RS,5RS)-3-[N-(L-2-Amino-3-hydroxypropanoyl)aminomethyl]-4-oxa-1-azabicyclo[3.2.0]heptan-7-one hydrochloride] — 20-fold higher, 8.81 µg/mL
- CC(=O)N[C@@H](CCCCNC(=O)OCc1ccccc1)C(=O)OCC1CN2C(=O)CC2O1 (stereo partly shown) [Example 78] — 7.7-fold higher, 3.38 µg/mL (≈ 7.55 µM)
